Source: patent US20030118553A1, “Vector constructs for gene-therapy mediated radionuclide therapy of undifferentiated and medullary thyroid carcinomas and non-thyroidal tumours and metastases mediated thereof” (priority 2000, published 2003)
Where two headings read alike, the source gives them in different places.

Experiments:
[1] = tested on: stably transfected tumor cell lines (K1-NIS, SW480-NIS); experiment: At-211 transport in vitro: Na+ dependency and perchlorate inhibition; type: cell-based
From the text: FIG. 6A depicts the dependency upon Na^+ of the At-211 transport in vitro in stably transfected tumor cell lines (K1-NIS, SW480-NIS), wherein NaCl has been iso-osmotically replaced by choline chloride.

[2] = tested on: tumor cells of a thyroid carcinoma cell line (K1) transfected with hNIS
Procedure: After a tumor growth for 3 weeks scintigraphic pictures were taken ventrally by means of scintiscanning (gamma camera ZLC370, Siemens) 3 and 24 h following the injection of 2 MBq I-123, 10 MBq Tc-99m-pertechnetate and 0.4 MBq At-211 (RVL=right-ventral-left).
The cDNAs of the therapeutic genes are amplified from human thyreocyte mRNA after reverse transcription by subsequent PCR with gene-specific primers, and the fragments thus obtained are subcloned in a cloning vector (e.g., pCRblunt, Invitrogen) in E. coli (K12 derivative). For this purpose, overlapping cDNA segments of the single genes are used, the fragments allowing the generation of full-length cDNAs due to their common restriction enzyme cleavage sites. The cDNAs are cloned into a vector for constitutive expression in mammalian cells (e.g., in pCIneo under control of the CMV promoter, Promega). The expression vectors with integrated cDNA (FIG. 7A, example) are used for transient transfection of different tumor cell lines (Fugen6, Roche) and for the generation of stably transfected cell lines by antibiotic selection (e.g., G418 for pCIneo). Radionuclide uptake measurements ([I-125], [At-211], [Tc-99m], [Re-188]) with cell cultures (FIGS. 5 and 6) are performed according to the method of Weiss et al. 1984. To establish an animal model stably transfected tumor cell lines and the corresponding control cells, respectively, are subcutaneously injected into nude NMRI mice (nu/nu). After tumor growth in the course of 3-4 weeks and application of different radionuclides (i. a., [I-123], [At-211], [Tc-99m]) sequential scintiscans are taken with a gamma camera and organ distribution over region of interest (ROI) analyses determined (FIG. 4).

[3] = tested on: tumor cell lines stably transfected with the NIS gene (K1, B-CPAP, 8505-C, SW480, DBTRG); experiment: In vitro radionuclide uptake in tumor cell lines stably transfected with the NIS gene; type: cell-based; conditions: for radionuclide uptake in control cells: corresponding control cells, not NIS-transfected; for radionuclide uptake in tumor cell lines transfected with NIS: stably transfected K1, B-CPAP, 8505-C, SW480, DBTRG
From the text: FIG. 5A depicts in vitro results of the radionuclide uptake of I-125, Tc-99m-pertechnetate, and At-211 in tumor cell lines stably transfected with the NIS gene as compared to the corresponding control cells: K1 papillary thyroid carcinoma ECACC #92030501, B-CPAP papillary thyroid carcinoma DSMZ #ACC273, 8505-C anaplastic thyroid carcinoma DSMZ #ACC219, SW480 colon carcinoma DSMZ #ACC313, DBTRG glioblastoma DSMZ #ACC359.

[4] = tested on: transiently transfected tumor cell lines; experiment: I-125 uptake in transiently NIS-transfected tumor cell lines; type: cell-based; conditions: also follicular thyroid carcinoma, HepG2, LN-Cap, A498, SK-Mel30, CCF-STTG1, TT
From the text: In FIG. 5B the uptake of I-125 is additionally shown depending on a perchlorate blockage in transiently transfected tumor cell lines. […] The differences in the iodide uptake rates in different cell lines transfected with NIS are caused by the variable transfection efficiency of the distinct cell lines with the method used.

[5] = tested on: anaplastic thyroid cells transfected with NIS cDNA; conditions: NIS-transfected tumor cells implanted into rats; cited from earlier work
[6] = scintigraphically, K1-NIS tumor, NMRI nude mouse, compared to muscle tissue
[7] = scintiscans 3 and 24 h after injection, K1-wt control tumor not shown

[At] [At-211]
dependency upon Na+ of the transport ([1]; NaCl iso-osmotically replaced by choline chloride, K1-NIS, SW480-NIS): clear-cut dependency upon Na^+
enrichment of the tracer in the tumor transfected with NIS ([2]; mouse, in vivo): significant enrichment
higher uptake in the NIS tumor as compared to muscle tissue ([2]; mouse, in vivo): 10 fold
radionuclide uptake in control cells [3]: no uptake
radionuclide uptake in tumor cell lines transfected with NIS [3]: highly significant uptake

[123IH] [I-123]
higher uptake in the NIS tumor as compared to muscle tissue [2, 6]: 60 fold
enrichment of the tracer in the tumor transfected with NIS [2, 7]: significant enrichment

[125IH] [I-125]
iodide uptake in transiently transfected tumor cell lines [4]: significant iodide uptake
radionuclide uptake in control cells [3]: no uptake
radionuclide uptake in tumor cell lines transfected with NIS [3]: highly significant uptake

[131IH] [I-131]
maximum level after [5]: 90 min

[O]=[99Tc](=[O])(=[O])[O-] [Tc-99m-pertechnetate]
higher uptake in the NIS tumor as compared to muscle tissue [2, 6]: 15 fold
enrichment of the tracer in the tumor transfected with NIS [2, 7]: significant enrichment
radionuclide uptake in control cells [3]: no uptake
radionuclide uptake in tumor cell lines transfected with NIS [3]: highly significant uptake

[O-][Cl+3]([O-])([O-])O [perchlorate]
inhibition of the astate transport ([1]; small perchlorate concentrations): clear inhibition
